According to patent publication US7322965B2, “Infection-resistant medical devices” (priority 2002, dated 2008):
Values after ≈ are worked out from the molar mass of the structure shown. “Also recorded” adds a separate entry of the source. Where two headings read alike, the source gives them in different places. Marks after values point to notes of the source that are not given here.

Key:
[1] = tested on: S. aureus and S. epidermidis strains; assay: Microtiter-plate adherence assay, summary over all strains evaluated; type: cell-based, staphylococci; settings: concentrations less than the MIC, as low as one-fourth the MIC; five strains
Method: (§1) Briefly, the inoculum was established by the direct colony suspension method using the Prompt™ Inoculation System (Becton Dickinson, Sparks, Md.). The bacteria suspension, which was equal to the turbidity of a 0.5 McFarland standard, was diluted in TSB to a concentration of 1×10^6 colony forming units per ml (CFU/mL). One hundred microliters of the cell suspension was added to flat-bottom polystyrene wells (Corning Costar, Corning, N.Y.) containing 100 μl of TSB, with and without drug. The final inoculum concentration per well was approximately 5×10^5 CFU/mL. The plates were incubated at 37° C. under static conditions in air. At 18 hours (h) post-infection, the optical density of bacterial growth was measured at a wavelength of 595 nm in a microtiter plate reader (Vmax; Molecular Devices, Sunnyvale, Calif.). […] Adherent “sessile” cells then were fixed with 3.7% (v/v) formaldehyde/2% (w/v) sodium acetate and stained with 0.1% (w/v) crystal violet. Excess stain was rinsed off with deionized water and the plates were air-dried for 4 h. The optical density of bacterial adherence was determined at a wavelength of 550 nm. Preliminary studies were performed to determine the optimal wavelengths for measuring growth turbidity and stained adherent cells (data not shown). To compensate for background absorbance, optical density readings from wells treated with sterile medium, fixative and stain as described above were averaged and then subtracted from all test and control wells. Relative inhibition of adherence or growth was expressed by the following equation: (OD of control well−OD of treated well/OD of control well)×100, where OD is the mean optical density of six replicate wells from two separate experiments (three replicates per experiment). Control was defined as infected, drug-free cultures.
(§2) The primary efficacy variable in this study was the measurement of adherent bacterial cells to polystyrene after 18 h of growth. To determine whether statistically significant differences existed between treatment groups (MIC, ½ MIC, and ¼ MIC) compared with the infected-nontreated controls, the Kruskal-Wallis one-way analysis of variance (ANOVA) was applied for each clinical strain. Statistical significance was defined as p-values ≦0.05. An asterisk (*) was placed by all test values less than or equal to the specified significance level.

S. epidermidis RP62A = assay: Determination of minimum inhibitory concentration (microdilution); type: cell-based; settings: Staphylococcus epidermidis, RP62A, 18 h, read-out: MIC (minimum inhibitory concentration)
S. epidermidis UC-20207 = assay: Time course adherence assay (prophylactic and delayed treatment); type: cell-based; settings: for inhibition at 1 µg/mL / inhibition at 2 µg/mL / inhibition at 4 µg/mL / inhibition at 8 µg/mL: Staphylococcus epidermidis, read-out: Percent inhibition of bacterial adherence relative to controls; for Mean OD550: UC-20207
Method: Drug effects on bacterial adherence were measured 18 hours after treatment initiation using a quantitative spectrophotometric assay.
Relative inhibition of adherence was expressed by the following equation: (OD of control well−OD of treated well/OD of control well)×100, where OD is the mean optical density of six replicate wells from two separate experiments (three replicates per experiment). Control was defined as infected, drug-free cultures.
The primary efficacy variable in this study was the measurement of adherent bacteria to polystyrene surfaces after 18 hours to 24 hours of growth. To determine whether statistically significant differences existed between treatments (4×MIC, 2×MIC, MIC, and ½ MIC) compared with the infected-nontreated controls, multiple comparisons according to Dunnett's test (Montgomery, Design and Analysis of Experiments (1991)) were applied for each clinical strain. Differences were considered statistically significant when p<0.05.

S. hominis SP-2 = assay: Determination of minimum inhibitory concentration (microdilution); type: cell-based; settings: Staphylococcus hominis, SP2, 18 h, read-out: MIC (minimum inhibitory concentration)
S. hominis SP2 = assay: Microtiter-plate adherence assay on polystyrene, nonadherent reference strain; type: cell-based; settings: data not shown
Method: Briefly, the inoculum was established by the direct colony suspension method using the Prompt™ Inoculation System (Becton Dickinson, Sparks, Md.). The bacteria suspension, which was equal to the turbidity of a 0.5 McFarland standard, was diluted in TSB to a concentration of 1×10^6 colony forming units per ml (CFU/mL). One hundred microliters of the cell suspension was added to flat-bottom polystyrene wells (Corning Costar, Corning, N.Y.) containing 100 μl of TSB, with and without drug. The final inoculum concentration per well was approximately 5×10^5 CFU/mL. The plates were incubated at 37° C. under static conditions in air. At 18 hours (h) post-infection, the optical density of bacterial growth was measured at a wavelength of 595 nm in a microtiter plate reader (Vmax; Molecular Devices, Sunnyvale, Calif.). […] The optical density of bacterial adherence was determined at a wavelength of 550 nm. […] To compensate for background absorbance, optical density readings from wells treated with sterile medium, fixative and stain as described above were averaged and then subtracted from all test and control wells. […]
Reliability of the microtiter-plate adherence assay was assessed with the reference strains S. hominis SP2 (nonadherent) and S. epidermidis RP62A (strongly adherent). The median optical density readings for SP2 and RP62A were 0.059±0.004 and 2.789±0.266, respectively. […]

S. aureus UC-20205 = assay: Microtiter-plate adherence assay on polystyrene; type: cell-based; settings: for Adherence Mean OD550: S. aureus UC-20205, 18 h
Method: as §1, §2

S. epidermidis UC-20208 = assay: Microtiter-plate adherence assay on polystyrene; type: cell-based; settings: for Adherence Mean OD550: S. epidermidis UC-20208, 18 h
Method: as §1, §2

S. aureus UC-20206 = assay: Microtiter-plate adherence assay on polystyrene; type: cell-based; settings: for Adherence Mean OD550: S. aureus UC-20206, 18 h
Method: as §1, §2

[2] = Staphylococcus aureus, UC20205, 18 h, read-out: Adherence % Inhibition
[3] = Staphylococcus epidermidis, UC20208, 18 h, read-out: Adherence % Inhibition
[4] = Staphylococcus aureus, UC20206, 18 h, read-out: Adherence % Inhibition

Q: How did the “effect on bacterial adhesion at subinhibitory concentrations” value [1] turn out when `CN[C@H](CC(C)C)C(=O)N[C@H]1C(=O)N[C@@H](CC(N)=O)C(=O)N[C@H]2C(=O)N[C@H]3C(=O)N[C@H](C(=O)N[C@H](C(=O)O)c4cc(O)cc(O)c4-c4cc3ccc4O)[C@H](O)c3ccc(c(Cl)c3)Oc3cc2cc(c3O[C@@H]2O[C@H](CO)[C@@H](O)[C@H](O)[C@H]2O[C@H]2C[C@](C)(N)[C@H](O)[C@H](C)O2)Oc2ccc(cc2Cl)[C@H]1O` [Vancomycin] was run?
A: minimal or no activity against bacterial adhesion; also recorded: did not inhibit staphylococcal adherence in four of the five strains assessed

Q: What about the MIC (S. epidermidis RP62A) of the same compound?
A: 2 µg/mL (≈ 1.38 µM)

Q: What about the inhibition at 1 µg/mL (S. epidermidis UC-20207; UC20207, 0 h) of the same compound?
A: 0%

Q: What about the inhibition at 2 µg/mL (S. epidermidis UC-20207; UC20207, 0 h) of the same compound?
A: 99.8%

Q: And the inhibition at 4 µg/mL (S. epidermidis UC-20207; UC20207, 0 h)?
A: 99.9%

Q: And the inhibition at 8 µg/mL (S. epidermidis UC-20207; UC20207, 0 h)?
A: 99.9%

Q: What about the inhibition at 1 µg/mL (S. epidermidis UC-20207; UC20207, 2 h) of the same compound?
A: 0%

Q: And the inhibition at 2 µg/mL (S. epidermidis UC-20207; UC20207, 2 h)?
A: 99.4%

Q: What about the inhibition at 4 µg/mL (S. epidermidis UC-20207; UC20207, 2 h) of the same compound?
A: 99.8%

Q: What about the inhibition at 8 µg/mL (S. epidermidis UC-20207; UC20207, 2 h) of the same compound?
A: 99.7%

Q: And the inhibition at 1 µg/mL (S. epidermidis UC-20207; UC20207, 4 h)?
A: 0%

Q: What about the inhibition at 2 µg/mL (S. epidermidis UC-20207; UC20207, 4 h) of the same compound?
A: 3.6%

Q: What about the inhibition at 4 µg/mL (S. epidermidis UC-20207; UC20207, 4 h) of the same compound?
A: 98.8%

Q: What about the inhibition at 8 µg/mL (S. epidermidis UC-20207; UC20207, 4 h) of the same compound?
A: 99%

Q: What about the inhibition at 1 µg/mL (S. epidermidis UC-20207; UC20207, 6 h) of the same compound?
A: 0%

Q: What about the inhibition at 2 µg/mL (S. epidermidis UC-20207; UC20207, 6 h) of the same compound?
A: 0%

Q: And the inhibition at 4 µg/mL (S. epidermidis UC-20207; UC20207, 6 h)?
A: 0%

Q: And the inhibition at 8 µg/mL (S. epidermidis UC-20207; UC20207, 6 h)?
A: 88.5%

Q: What about the “Mean OD550” value (S. epidermidis UC-20207; 1.0 μg/ml, treatment 0 h post-infection) of the same compound?
A: 2.389 ± 0.175

Q: And the “Mean OD550” value (S. epidermidis UC-20207; 2.0 μg/ml (MIC), treatment 0 h post-infection)?
A: 0.005 ± 0.004

Q: And the “Mean OD550” value (S. epidermidis UC-20207; 2.0 μg/ml (MIC), treatment 2 h post-infection)?
A: 0.014 ± 0.010

Q: And the “Mean OD550” value (S. epidermidis UC-20207; 2.0 μg/ml (MIC), treatment 4 h post-infection)?
A: 2.693 ± 0.527

Q: What about the “Mean OD550” value (S. epidermidis UC-20207; 4.0 μg/ml, treatment 0 h post-infection) of the same compound?
A: 0.003 ± 0.002

Q: And the “Mean OD550” value (S. epidermidis UC-20207; 4.0 μg/ml, treatment 2 h post-infection)?
A: 0.006 ± 0.003

Q: And the “Mean OD550” value (S. epidermidis UC-20207; 4.0 μg/ml, treatment 4 h post-infection)?
A: 0.033 ± 0.010

Q: And the “Mean OD550” value (S. epidermidis UC-20207; 8.0 μg/ml, treatment 0 h post-infection)?
A: 0.003 ± 0.002

Q: What about the “Mean OD550” value (S. epidermidis UC-20207; 8.0 μg/ml, treatment 2 h post-infection) of the same compound?
A: 0.007 ± 0.003

Q: And the “Mean OD550” value (S. epidermidis UC-20207; 8.0 μg/ml, treatment 4 h post-infection)?
A: 0.028 ± 0.014

Q: And the “Mean OD550” value (S. epidermidis UC-20207; 8.0 μg/ml, treatment 6 h post-infection)?
A: 0.326 ± 0.046

Q: What about the MIC (S. hominis SP-2) of the same compound?
A: 1 µg/mL (≈ 0.69 µM)

Q: What about the “promotion of adherence of the nonadherent strain” value (S. hominis SP2) of the same compound?
A: Neither linezolid nor vancomycin promoted adherence

Q: And the “Adherence Mean OD550” value (S. aureus UC-20205; drug 0.25 μg/ml)?
A: 0.730 ± 0.202

Q: And the “Adherence Mean OD550” value (S. aureus UC-20205; drug 0.5 μg/ml)?
A: 0.012 ± 0.013*

Q: And the “Adherence Mean OD550” value (S. aureus UC-20205; drug 1.0 μg/ml)?
A: 0.000 ± 0.001*

Q: What about the inhibition at 0.25 µg/mL (S. aureus UC-20205; [2]) of the same compound?
A: 0%

Q: And the inhibition at 0.5 µg/mL (S. aureus UC-20205; [2])?
A: 98%

Q: What about the inhibition at 1 µg/mL (S. aureus UC-20205; [2]) of the same compound?
A: 100%

Q: What about the “Adherence Mean OD550” value (S. epidermidis UC-20208; drug 0.5 μg/ml) of the same compound?
A: 2.165 ± 0.150

Q: What about the “Adherence Mean OD550” value (S. epidermidis UC-20208; drug 1.0 μg/ml) of the same compound?
A: 2.716 ± 0.400

Q: What about the “Adherence Mean OD550” value (S. epidermidis UC-20208; drug 2.0 μg/ml (MIC)) of the same compound?
A: 0.000 ± 0.001*

Q: And the inhibition at 0.5 µg/mL (S. epidermidis UC-20208; [3])?
A: 0%

Q: What about the inhibition at 1 µg/mL (S. epidermidis UC-20208; [3]) of the same compound?
A: 0%

Q: And the inhibition at 2 µg/mL (S. epidermidis UC-20208; [3])?
A: 100%

Q: And the “Adherence Mean OD550” value (S. aureus UC-20206; drug 0.25 μg/ml)?
A: 0.192 ± 0.020

Q: And the “Adherence Mean OD550” value (S. aureus UC-20206; drug 0.5 μg/ml)?
A: 0.267 ± 0.044

Q: What about the “Adherence Mean OD550” value (S. aureus UC-20206; drug 1.0 μg/ml) of the same compound?
A: 0.000 ± 0.003*

Q: What about the inhibition at 0.25 µg/mL (S. aureus UC-20206; [4]) of the same compound?
A: 12.5%

Q: And the inhibition at 0.5 µg/mL (S. aureus UC-20206; [4])?
A: 0%

Q: And the inhibition at 1 µg/mL (S. aureus UC-20206; [4])?
A: 9.99%
